Assay [1] has as its system arterial pressure in amyelated rats. Nature of the assay: In vivo study in amyelated rats, arterial pressure. Also on record: species or system Sprague Dawley rats. Conditions: Rattus norvegicus, iv, tertatolol pretreated, no prazosin or yohimbine, read-out: C20 Control (concentration which increases the pressure by 20 mmHg). The source says: (§1) Male Sprague Dawley rats (300-400 g) are anesthetized with ether. The trachea is cannulated, the spinal column is destroyed using a stainless-steel rod and the animal is 1. 5 immediately placed under artificial respiration. The vagus nerves are dissected. The carotid arteries are ligatured and a catheter is placed in one and serves to record the arterial pressure. Three other catheters are placed in the jugular veins and in the vein of the penis and serve for the injections. The temperature of the animals is maintained at 36° C. The animal is pretreated by an injection of tertatolol […]. The animal is also pretreated 10 minutes later with prazosin ([…]) or yohimbine (1 mg/kg) when it is desired to determine the alpha1 - or alpha2-adrenergic properties of the product. Ten minutes later, increasing cumulative doses of product are injected every 20 seconds. The variations in arterial pressure are detected using a Statham P23XL pressure cell and are recorded. The pressure values are expressed in mmHg. This experiment makes it possible to calculate the concentration which increases the pressure by 20 mmHg (C20) by non-linear regression according to the mass action law model of Michaelis and Menten as described above. The maximum effect obtained is subsequently convened to a percentage relative to the maximum effect induced by phenylephrine. The alpha1 - or alpha2-adrenergic components of the product are evaluated using the C20 ratio obtained in the presence of prazosin or yohimbine on the values obtained in the absence of these antagonists. In amyelated rats, the products of the invention produce hypertensions which are sensitive to prazosin and to yohimbine.

The next assay deals with alpha1-adrenergic. Description: Amyelated rats, alpha1-adrenergic component (C20 ratio with prazosin). Conditions: pretreated with prazosin. Type of assay: in vivo, Sprague Dawley rats.
From the text: as §1

For a further assay, the system named is alpha2-adrenergic. Description: Amyelated rats, alpha2-adrenergic component (C20 ratio with yohimbine). In kind it is in vivo, Sprague Dawley rats. Particulars: pretreated with yohimbine (1 mg/kg).
From the text: as §1

The next assay deals with dog femoral arteries. Nature of the assay: Contraction of isolated dog femoral arteries. Particulars: Canis lupus familiaris; for EC50: dog femoral artery rings, cumulative doses; for Emax: maximum contraction relative to 100 mM KCl, dog femoral artery, read-out: ARTERY Max. The protocol: (§2) The technique used is based on that described by Fowler et al. (J. Pharmacol. Exp. Ther., 229, 712-718, 1984). Male or female mongrel dogs of approximately 15-25 kg were used as organ sources. The animals are anesthetized with pentobarbital (30 mg/kg intravenously). The legs are incized and the blood vessels removed. They are placed in Krebs-Ringer liquid (118 mM NaCl; 25 mM NaHCO3; 10 mM Glucose; 4.7 mM KCl; 1.25 mM CaCl2; 1.19 mM MgSO4; 1.14 mM KH2 PO4) at room temperature and under a sparge of carbogen (95% O2, 5% CO2). These blood vessels are then carefully freed of their fat and then cut into rings 2 mm wide and mounted under a base tension of 4 g (femoral arteries) or 1 g (saphena veins) in tanks thermostated at 37° C. containing Krebs-Ringer liquid and constantly sparged with carbogen. A lower hook constitutes the fixed point, whereas the upper hook is connected to an isometric force sensor. The variations in tension are digitized, stored on disk and processed by an information technology system. After mounting, the organs are left to rest for 90 minutes, with rinses being carried out every 30 min. After readjustment of the base tension, a contraction is induced by a single dose of KCl (100 mM). After stabilization, washing and returning to the base line, a contraction is provoqued by a single dose of phenylephrine (submaximal concentration) in order to regulate the following contractions. After washing and returning to the baseline, an effect/concentration curve is produced by addition of cumulative doses of agonist (the space between the doses is a semi-log). This experiment makes it possible to calculate the 50% effective concentration (EC50) in the following way: the tension values are first of all converted to percentages relative to the maximum effect induced by 100 mM of KCl. This EC50 is determined by non-linear regression by the SIMPLEX method (M. S. Caceci, Byte, 340-362, 1984), calculated according to the mass action law model of L. Michaelis and M. L. Menten (Biochem. Zeitschrift, 49, 333-369, 1913).
(§3) E=(Emax*C^n)(EC^n +C^n) with E=effect; Emax=maximum effect; C=concentration; EC=EC50; n=Hill number
(§4) The products of the invention contract dog arteries and veins. The maximum for these contractions approaches that obtained with KCl.

The next assay relates to saphena veins. Nature of the assay: Contraction of isolated dog saphena veins. Conditions: Canis lupus familiaris; for EC50: dog saphena vein rings, cumulative doses; for Emax: maximum contraction relative to 100 mM KCl, dog saphena vein, read-out: VEIN Max. The procedure: as §2, §3, §4

The structures appear in SMILES notation.

As to `Oc1cccc2c1CC1(CC2)CNC=N1` (centres unmarked) [Example 5, Spiro[(1,3-diazacyclopent-1-ene)-5:2'-(8'-hydroxy-1',2',3', 4'-tetrahydronaphthalene)]fumarate], the ED (20 mmHg) in assay [1] was determined as 4.8 µg/kg. For the same molecule, the “Ratio treated C20 / control C20, Prazosin” value in the assay on alpha1-adrenergic came to 0.9. Also, in the assay with alpha2-adrenergic, the “Ratio treated C20 / control C20, Yohimbine” value is given as 12.0.

In general, EC50 refers to the midpoint of the concentration-response curve. Higher therefore signals a need for much substance. In the case of `Clc1cccc2c1CC1(CC2)CNC=N1` (centres unmarked) [Example 1, Spiro[(1,3-diazacyciopent-1-ene)-5:2'-(8'-chloro-1', 2',3',4'-tetrahydronaphthalene)]fumarate], the ED (20 mmHg) in assay [1] stood at 0.2 µg/kg. Further, the “Ratio treated C20 / control C20, Prazosin” value in the assay on alpha1-adrenergic is 1.9. Also, the 50% effective concentration (EC50) with dog femoral arteries amounted to 1000 nM; in the assay on saphena veins, 200 nM. For the same molecule, the Emax is 94% in the assay on dog femoral arteries and 95% with saphena veins. Further, the “Ratio treated C20 / control C20, Yohimbine” value in the assay with alpha2-adrenergic came out at 6.0.

Turning to `Clc1cccc2c1CC1(CC2)CNC=N1` (single isomer, unassigned) [Example 6, Spiro[(1,3-diazacyclopent-1-ene)-5:2'-(8'-chloro-1',2',3', 4'-tetrahydronaphthalene)]L-(+)-tartrate, αisomer], the ED (20 mmHg) in assay [1] was found to be 0.1 µg/kg. Moreover, the “Ratio treated C20 / control C20, Prazosin” value in the assay on alpha1-adrenergic was 1.7. For the same molecule, the EC50 in the assay with dog femoral arteries amounted to 2000 nM; with saphena veins, 7000 nM. Further, the Emax came out at 91% with dog femoral arteries and 96% in the assay with saphena veins. Further, the “Ratio treated C20 / control C20, Yohimbine” value in the assay on alpha2-adrenergic amounted to 4.0.

Source of the values: patent publication US5486532A, “Benzospiroalkenes” (Adir et Compagnie, priority 1993, dated 1996).
